Consider 40 compounds from patent publication US9802960B2 (MILLENNIUM PHARMACEUTICALS, INC., priority 2014, dated 2017).

Human VPS34, sequence (Q8NEB9 whole entry): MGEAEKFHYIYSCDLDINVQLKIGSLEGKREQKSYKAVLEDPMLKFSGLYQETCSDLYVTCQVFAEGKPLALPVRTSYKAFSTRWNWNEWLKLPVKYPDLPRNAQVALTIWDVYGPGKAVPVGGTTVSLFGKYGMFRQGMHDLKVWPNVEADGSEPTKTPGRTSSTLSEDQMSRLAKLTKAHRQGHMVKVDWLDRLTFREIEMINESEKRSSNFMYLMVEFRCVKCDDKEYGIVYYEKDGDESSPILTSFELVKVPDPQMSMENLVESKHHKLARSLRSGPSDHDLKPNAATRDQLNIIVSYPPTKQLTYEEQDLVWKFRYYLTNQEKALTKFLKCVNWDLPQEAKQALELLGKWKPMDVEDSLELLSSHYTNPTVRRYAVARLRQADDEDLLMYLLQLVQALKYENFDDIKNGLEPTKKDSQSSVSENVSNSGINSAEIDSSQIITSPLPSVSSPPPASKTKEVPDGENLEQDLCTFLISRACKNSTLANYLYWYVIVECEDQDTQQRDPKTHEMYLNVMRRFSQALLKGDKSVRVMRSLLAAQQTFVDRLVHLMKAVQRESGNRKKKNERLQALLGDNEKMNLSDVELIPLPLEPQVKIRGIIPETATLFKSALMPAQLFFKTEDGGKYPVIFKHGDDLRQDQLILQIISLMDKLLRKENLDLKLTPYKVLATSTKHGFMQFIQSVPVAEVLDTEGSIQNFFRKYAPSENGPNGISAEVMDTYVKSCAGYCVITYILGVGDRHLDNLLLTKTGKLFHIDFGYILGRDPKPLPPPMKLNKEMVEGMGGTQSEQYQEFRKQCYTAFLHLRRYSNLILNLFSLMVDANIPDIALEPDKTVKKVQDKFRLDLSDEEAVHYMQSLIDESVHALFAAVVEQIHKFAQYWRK

One assay addresses Human VPS34 (Homo sapiens (Human), UniProt Q8NEB9). Put plainly: Human VPS34 enzyme assay (Adapta TR-FRET). It counts as biochemical. The following applies: compound concentration 1.11 μM; read-out: Percent Inhibition. Background: In TR-FRET formats the signal depends on donor and acceptor labels being close together.
With `CC(=O)Nc1cc(-c2cnc(N)c(C(=O)NC34CC(C3)C4)c2)ccn1` [Compound I-187, 2′-acetamido-6-amino-N-(bicyclo[1.1.1]pent-1-yl)-3,4′-bipyridine-5-carboxamide], the inhibition at 1.11 µM was more than 99%.

Turning to `CC(=O)Nc1cc(-c2cncc(/C=C/C(=O)c3ccc(F)cc3)c2)ccn1` [Compound I-188, N-{5-[(1E)-3-(4-fluorophenyl)-3-oxoprop-1-en-1-yl]-3,4′-bipyridin-2′-yl}acetamide], the inhibition at 1.11 µM was found to be 98%.

As for `CC(=O)Nc1cc(-c2cnc3[nH]ncc3c2)ccn1` [Compound I-189, N-[4-(1H-pyrazolo[3,4-b]pyridin-5-yl)pyridin-2-yl]acetamide], the inhibition at 1.11 µM was more than 99%.

With `CC(=O)Nc1cc(-c2cncc(S(=O)(=O)NC34CC(C3)C4)c2)ccn1` [Compound I-190, N-[5-(bicyclo[1.1.1]pent-1-ylsulfamoyl)-3,4′-bipyridin-2′-yl]acetamide], the inhibition at 1.11 µM came out at 96%.

Turning to `CC(=O)Nc1cc(-c2cc(S(C)(=O)=O)c[n+]([O-])c2)ccn1` [Compound I-191, N-{4-[5-(methylsulfonyl)-1-oxidopyridin-3-yl]pyridin-2-yl}acetamide], the inhibition at 1.11 µM is 77%.

With `CC(=O)Nc1cc(-c2cncc(N3CCCS3(=O)=O)c2)ccn1` [Compound I-192, N-[5-(1,1-dioxidoisothiazolidin-2-yl)-3,4′-bipyridin-2′-yl]acetamide], the inhibition at 1.11 µM was more than 99%.

As to `CC(=O)Nc1cc(-c2cnc(C)c(NC(C)=O)c2)ccn1` [Compound I-193, N,N′-(6-methyl-3,4′-bipyridine-2′,5-diyl)diacetamide], the inhibition at 1.11 µM was more than 99%.

`CC(=O)Nc1cc(-c2cncc(C(C)=O)c2)ccn1` [Compound I-194, N-(5-acetyl-3,4′-bipyridin-2′-yl)acetamide]: the inhibition at 1.11 µM was found to be 62%.

`COC(=O)Nc1cc(-c2cnc(C)c(NS(=O)(=O)c3ccc(F)cc3F)c2)ccn1` [Compound I-195, methyl (5-{[(2,4-difluorophenyl)sulfonyl]amino}-6-methyl-3,4′-bipyridin-2′-yl)carbamate]: the inhibition at 1.11 µM is more than 99%.

Regarding `CC(=O)Nc1cc(-c2cnc(C)c(NS(=O)(=O)c3ccc(C(F)(F)F)cc3Cl)c2)ccn1` [Compound I-196, N-[5-({[2-chloro-4-(trifluoromethyl)phenyl]sulfonyl}amino)-6-methyl-3,4′-bipyridin-2′-yl]acetamide], the inhibition at 1.11 µM is more than 99%.

As to `CC(=O)Nc1cc(-c2cnc(N)c(S(=O)(=O)Cc3ccccc3F)c2)ccn1` [Compound I-197, N-{6-amino-5-[(2-fluorobenzyl)sulfonyl]-3,4′-bipyridin-2′-yl}acetamide], the inhibition at 1.11 µM is more than 99%.

For the compound `CC(=O)Nc1cc(-c2cncc(C(=O)/C=C/c3ccc(F)cc3)c2)ccn1` [Compound I-198, N-{5-[(2E)-3-(4-fluorophenyl)prop-2-enoyl]-3,4′-bipyridin-2′-yl}acetamide], the inhibition at 1.11 µM is 68%.

With `CC(=O)Nc1cc(-c2cnc3ccn(S(=O)(=O)C4CC4)c3c2)ccn1` [Compound I-199, N-{4-[1-(cyclopropylsulfonyl)-1H-pyrrolo[3,2-b]pyridin-6-yl]pyridin-2-yl}acetamide], the inhibition at 1.11 µM was more than 99%.

As to `CC(=O)Nc1cc(-c2cnc(N)c(C(=O)N3CCC3)c2)ccn1` [Compound I-200, N-[6-amino-5-(azetidin-1-ylcarbonyl)-3,4′-bipyridin-2′-yl]acetamide], the inhibition at 1.11 µM is more than 99%.

As for `CCc1ncc(-c2ccnc(NC(C)=O)c2)cc1NS(=O)(=O)c1ccc(F)cc1F` [Compound I-201, N-(5-{[(2,4-difluorophenyl)sulfonyl]amino}-6-ethyl-3,4′-bipyridin-2′-yl)acetamide], the inhibition at 1.11 µM is more than 99%.

Turning to `CC(=O)Nc1cc(-c2cncc(N(CC3CC3)S(C)(=O)=O)c2)ccn1` [Compound I-202, N-{5-[(cyclopropylmethyl)(methylsulfonyl)amino]-3,4′-bipyridin-2′-yl}acetamide], the inhibition at 1.11 µM was more than 99%.

For `CC(=O)Nc1cc(-c2cnc(C)c(NS(=O)(=O)c3ccsc3)c2)ccn1` [Compound I-203, N-{6-methyl-5-[(3-thienylsulfonyl)amino]-3,4′-bipyridin-2′-yl}acetamide], the inhibition at 1.11 µM is more than 99%.

Consider `CC(=O)Nc1cc(-c2cnc(N)c(S(=O)(=O)Nc3cccnc3)c2)ccn1` [Compound I-204, N-[6-amino-5-(pyridin-3-ylsulfamoyl)-3,4′-bipyridin-2′-yl]acetamide], for which the inhibition at 1.11 µM is more than 99%.

As for `CC(=O)Nc1cc(-c2cnc(N)c(S(=O)(=O)Cc3cccnc3)c2)ccn1` [Compound I-205, N-{6-amino-5-[(pyridin-3-ylmethyl)sulfonyl]-3,4′-bipyridin-2′-yl}acetamide], the inhibition at 1.11 µM was more than 99%.

As for `CC(=O)Nc1cc(-c2cnc(C)c(NS(=O)(=O)c3ccc(F)cc3Cl)c2)ccn1` [Compound I-206, N-(5-{[(2-chloro-4-fluorophenyl)sulfonyl]amino}-6-methyl-3,4′-bipyridin-2′-yl)acetamide], the inhibition at 1.11 µM is more than 99%.

For `CC(=O)Nc1cc(-c2cnc(N)c(S(=O)(=O)Nc3ccc(Cl)cc3)c2)ccn1` [Compound I-207, N-{6-amino-5-[(4-chlorophenyl)sulfamoyl]-3,4′-bipyridin-2′-yl}acetamide], the inhibition at 1.11 µM is more than 99%.

`CC(=O)Nc1cc(-c2cnc3[nH]ncc3c2)c(C)cn1` [Compound I-209, N-[5-methyl-4-(1H-pyrazolo[3,4-b]pyridin-5-yl)pyridin-2-yl]acetamide]: the inhibition at 1.11 µM amounted to 49%.

On to `CC(=O)Nc1cc(-c2cnc(N)c(C(=O)NC3CCOCC3)c2)ccn1` [Compound I-210, 2′-acetamido-6-amino-N-(tetrahydro-2H-pyran-4-yl)-3,4′-bipyridine-5-carboxamide], for which the inhibition at 1.11 µM was more than 99%.

Regarding `CC(=O)Nc1cc(-c2cnc(C)c(NS(=O)(=O)c3ccccc3C)c2)ccn1` [Compound I-211, N-(6-methyl-5-{[(2-methylphenyl)sulfonyl]amino}-3,4′-bipyridin-2′-yl)acetamide], the inhibition at 1.11 µM is more than 99%.

Consider `CC(=O)Nc1cc(-c2cnc(C)c(N(C)S(=O)(=O)C3CC3)c2)ccn1` [Compound I-212, N-{5-[(cyclopropylsulfonyl)(methyl)amino]-6-methyl-3,4′-bipyridin-2′-yl}acetamide], for which the inhibition at 1.11 µM worked out at 95%.

With `CC(=O)Nc1cc(-c2cnc(Cl)c(C(=O)N(C)C)c2)ccn1` [Compound I-213, 2′-acetamido-6-chloro-N,N-dimethyl-3,4′-bipyridine-5-carboxamide], the inhibition at 1.11 µM is more than 99%.

For the compound `CC(=O)Nc1cc(-c2cnc(C)c(NS(=O)(=O)N3CCCCC3)c2)ccn1` [Compound I-214, N-{6-methyl-5-[(piperidin-1-ylsulfonyl)amino]-3,4′-bipyridin-2′-yl}acetamide], the inhibition at 1.11 µM was more than 99%.

As to `Cc1nccc(Nc2cc(-c3cnc(Cl)c(S(=O)(=O)NC4CCC4)c3)ccn2)n1` [Compound I-215, 6-chloro-N-cyclobutyl-2′-((2-methylpyrimidin-4-yl)amino)-[3,4′-bipyridine]-5-sulfonamide], the inhibition at 1.11 µM amounted to 99%.

For the compound `N=C(N)NC(=O)c1cc(-c2ccnc(Nc3ccncn3)c2)cnc1N` [Compound I-216, 6-Amino-N-carbamimidoyl-2′-(pyrimidin-4-ylamino)-3,4′-bipyridine-5-carboxamide], the inhibition at 1.11 µM was found to be 97%.

For `Cc1ncc(-c2ccnc(Nc3ccncn3)c2)cc1NS(=O)(=O)N(C)C` [Compound I-217, N,N-dimethyl-Y-[6-methyl-2′-(pyrimidin-4-ylamino)-3,4′-bipyridin-5-yl]sulfuric diamide], the inhibition at 1.11 µM is more than 99%.

`CC(=O)Nc1cc(-c2cnc(C)c(NS(=O)(=O)c3ccc(F)cc3F)c2)cc[n+]1[O-]` [Compound I-219, N-[4-(5-{[(2,4-difluorophenyl)sulfonyl]amino}-6-methylpyridin-3-yl)-1-oxidopyridin-2-yl]acetamide]: the inhibition at 1.11 µM was found to be 92%.

Consider `COc1ncc(-c2ccnc(NC(C)=O)c2)cc1NS(=O)(=O)N(C)C` [Compound I-220, N-{5-[(dimethylsulfamoyl)amino]-6-methoxy-3,4′-bipyridin-2′-yl}acetamide], for which the inhibition at 1.11 µM is 99%.

For `Cc1nccc(Nc2cc(-c3cnc(C)c(C(=O)N4CC(F)(F)C4)c3)ccn2)n1` [Compound I-221, (3,3-difluoroazetidin-1-yl){6-methyl-2′-[(2-methylpyrimidin-4-yl)amino]-3,4′-bipyridin-5-yl}methanone], the inhibition at 1.11 µM is 97%.

As for `CNc1ncc(-c2ccnc(Nc3ccncn3)c2)cc1C(=O)N(C)C12CC(C1)C2` [Compound I-222, N-(bicyclo[1.1.1]pent-1-yl)-N-methyl-6-(methylamino)-2′-(pyrimidin-4-ylamino)-3,4′-bipyridine-5-carboxamide], the inhibition at 1.11 µM stood at 93%.

`Cc1nccc(Nc2cc(-c3cnc(C)c(C(=S)N4CCC4)c3)ccn2)n1` [Compound I-223, Azetidin-1-yl{6-methyl-2′-[(2-methylpyrimidin-4-yl)amino]-3,4′-bipyridin-5-yl}methanethione]: the inhibition at 1.11 µM is 95%.

On to `COc1ncc(-c2ccnc(Nc3ccnc(C)n3)c2)cc1S(=O)(=O)NC1CCC1` [Compound I-224, N-cyclobutyl-6-methoxy-2′-[(2-methylpyrimidin-4-yl)amino]-3,4′-bipyridine-5-sulfonamide], for which the inhibition at 1.11 µM was 99%.

With `COc1nccc(Nc2cc(-c3cnc(Cl)c(NS(=O)(=O)c4ccc(F)cc4F)c3C)ccn2)n1` [Compound I-225, N-{6-chloro-2′-[(2-methoxypyrimidin-4-yl)amino]-4-methyl-3,4′-bipyridin-5-yl}-2,4-difluorobenzene sulfonamide], the inhibition at 1.11 µM was more than 99%.

For `Cc1nccc(Nc2cc(-c3cnc(Cl)c(N)c3C)ccn2)n1` [Compound I-226, 6-chloro-4-methyl-N-2′-(2-methylpyrimidin-4-yl)-3,4′-bipyridine-2′,5-diamine], the inhibition at 1.11 µM is 94%.

The same assay, now with this note: read-out: Percent Inhibition.
In the case of `CC(=O)Nc1cc(-c2cnc(N)c(S(=O)(=O)N(C)C)c2)c(F)cn1` [Compound I-186], the inhibition at 1.11 µM was more than 99%.

With `CC(=O)Nc1cc(-c2cnc(N)c(S(=O)(=O)CC3CC3)c2)ccn1` [Compound I-208], the inhibition at 1.11 µM was more than 99%.

By inhibition is commonly meant the relative decrease from the control value, in per cent.
